The assay deals with T1, RET (Homo sapiens, UniProt P07949).
T1 construct: purchased Upstate 14-570MG
T1 sequence (P07949 29-1114): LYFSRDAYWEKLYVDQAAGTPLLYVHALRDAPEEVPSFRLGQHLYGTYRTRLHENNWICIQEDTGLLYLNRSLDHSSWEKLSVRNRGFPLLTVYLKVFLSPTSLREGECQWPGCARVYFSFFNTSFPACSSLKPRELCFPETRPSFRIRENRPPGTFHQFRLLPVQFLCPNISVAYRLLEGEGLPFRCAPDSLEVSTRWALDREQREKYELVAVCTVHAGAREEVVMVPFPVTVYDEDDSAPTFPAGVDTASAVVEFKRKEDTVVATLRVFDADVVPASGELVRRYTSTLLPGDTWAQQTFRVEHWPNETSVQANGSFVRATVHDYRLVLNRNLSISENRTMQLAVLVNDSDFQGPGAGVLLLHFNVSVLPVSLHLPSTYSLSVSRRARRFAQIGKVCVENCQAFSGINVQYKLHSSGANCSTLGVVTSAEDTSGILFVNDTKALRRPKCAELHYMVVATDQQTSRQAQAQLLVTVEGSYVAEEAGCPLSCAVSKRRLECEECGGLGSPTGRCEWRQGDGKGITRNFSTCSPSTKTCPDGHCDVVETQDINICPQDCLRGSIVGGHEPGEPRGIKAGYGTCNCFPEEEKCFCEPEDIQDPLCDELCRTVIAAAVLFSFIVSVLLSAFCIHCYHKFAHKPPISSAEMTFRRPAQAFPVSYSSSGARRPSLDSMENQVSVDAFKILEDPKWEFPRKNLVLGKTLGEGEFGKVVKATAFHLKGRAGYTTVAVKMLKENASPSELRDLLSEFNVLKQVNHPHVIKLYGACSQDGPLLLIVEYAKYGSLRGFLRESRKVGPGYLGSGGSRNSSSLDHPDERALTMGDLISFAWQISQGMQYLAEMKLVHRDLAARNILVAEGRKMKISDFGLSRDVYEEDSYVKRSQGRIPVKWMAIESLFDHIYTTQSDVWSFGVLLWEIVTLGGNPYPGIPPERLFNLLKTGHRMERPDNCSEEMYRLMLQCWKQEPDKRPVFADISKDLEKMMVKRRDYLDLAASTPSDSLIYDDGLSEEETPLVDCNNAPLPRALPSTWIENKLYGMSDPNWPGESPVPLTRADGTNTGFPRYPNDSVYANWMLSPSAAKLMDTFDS
Briefly: Inhibition of RET kinase activity, recombinant RET method (Kinase-Glo). The format is biochemical. To be noted: RET 2 μg/ml, poly-EY4 substrate, 20 μM ATP, two hours at 30° C. The procedure, abridged: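 Recombinant RET at 2 μg/ml in 20 mM MOPS/NaOH pH 7.0, 1 mM EDTA, 5% glycerol, 0.01% Brij35, 0.1% 2-mercaptoethanol, 1 mg/ml BSA; compounds 10 nM–30 μM final.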
In the case of `CCOC(=O)c1c[nH]c2c(=O)[nH]c3ccc(-c4ccccc4NS(C)(=O)=O)cc3c12` [Compound 232, 8-(2-Methanesulfonylaminophenyl)-4-oxo-4,5-dihydro-3-pyrrolo[2,3-c]quinoline-1-ethyl carboxylate], the IC50 (commonly the concentration at which inhibition is half-maximal) was in the range of 0.1 to 1 µM. Consider `CCOC(=O)c1c[nH]c2c(=O)[nH]c3ccc(-c4cccc(NC(=O)OC(C)(C)C)c4)cc3c12` [Compound 233, 8-(3-tert-Butoxycarbonylaminophenyl)-4-oxo-4,5-dihydro-3H-pyrrolo[2,3-c]quinoline-1-ethyl carboxylate], for which the IC50 is 1 to 10 µM. The same measure for `CCOC(=O)c1c[nH]c2c(=O)[nH]c3ccc(-c4cccc(NS(C)(=O)=O)c4)cc3c12` [Compound 235, 8-(3-Methanesulfonylaminophenyl)-4-oxo-4,5-dihydro-3H-pyrrolo[2,3-c]quinoline-1-ethyl carboxylate]: 0.1 to 1 µM; for `CCOC(=O)c1c[nH]c2c(=O)[nH]c3ccc(-c4cccc(NC(C)=O)c4)cc3c12` [Compound 236, 8-(3-Acetylaminophenyl)-4-oxo-4,5-dihydro-3H-pyrrolo[2,3-c]quinoline-1-ethyl carboxylate]: 0.1 to 1 µM; for `CCOC(=O)c1c[nH]c2c(=O)[nH]c3ccc(-c4cccc(C#N)c4)cc3c12` [Compound 239, 8-(3-Cyano-phenyl)-4-oxo-4,5-dihydro-3H-pyrrolo[2,3-c]quinoline-1-ethyl carboxylate]: 0.1 to 1 µM. To `CCOC(=O)c1c[nH]c2c(=O)[nH]c3ccc(-c4ccc(NC(=O)OC(C)(C)C)cc4)cc3c12` [Compound 243, 8-(4-tert-Butoxycarbonylaminophenyl)-4-oxo-4,5-dihydro-3H-pyrrolo[2,3-c]quinoline-1-ethyl carboxylate] belongs 1 to 10 µM; to `CCOC(=O)c1c[nH]c2c(=O)[nH]c3ccc(-c4ccc(S(C)(=O)=O)cc4)cc3c12` [Compound 245, 8-(4-Methanesulfonyl-phenyl)-4-oxo-4,5-dihydro-3H-pyrrolo[2,3-c]quinoline-1-ethyl carboxylate], 1 to 10 µM; to `CCOC(=O)c1c[nH]c2c(=O)[nH]c3ccc(-c4ccc(OC)cc4)cc3c12` [Compound 246, 8-(4-Methoxy-phenyl)-4-oxo-4,5-dihydro-3H-pyrrolo[2,3-c]quinoline-1-ethyl carboxylate], 1 to 10 µM.

Turning to `CCOC(=O)c1c[nH]c2c(=O)[nH]c3ccc(-c4ccc(C#N)cc4)cc3c12` [Compound 247, 8-(4-Cyano-phenyl)-4-oxo-4,5-dihydro-3H-pyrrolo[2,3-c]quinoline-1-ethyl carboxylate], the IC50 fell in the range of 10 to 100 µM. In the case of `CCOC(=O)c1c[nH]c2c(=O)[nH]c3ccc(-c4ccc5c(c4)OCCO5)cc3c12` [Compound 248, 8-(2,3-Dihydro-benzo[1,4]dioxin-6-yl)-4-oxo-4,5-dihydro-3H-pyrrolo[2,3-c]quinoline-1-ethyl carboxylate], the IC50 was in the range of 0.1 to 1 µM. `CCOC(=O)c1c[nH]c2c(=O)[nH]c3ccc(-c4cccc5ccccc45)cc3c12` [Compound 249, 8-Naphthalen-1-yl-4-oxo-4,5-dihydro-3H-pyrrolo[2,3-c]quinoline-1-ethyl carboxylate]: the 50% inhibitory concentration (IC50) was 0.1 to 1 µM. For `CCOC(=O)c1c[nH]c2c(=O)[nH]c3ccc(-c4cccc5cccnc45)cc3c12` [Compound 250, 4-Oxo-8-quinolin-8-yl-4,5-dihydro-3H-pyrrolo[2,3-c]quinoline-1-ethyl carboxylate], the IC50 fell in the range of 1 to 10 µM. To `CCOC(=O)c1c[nH]c2c(=O)[nH]c3ccc(-c4cc(S(C)(=O)=O)ccc4N)cc3c12` [Compound 251, 8-(2-Amino-5-methanesulfonyl-phenyl)-4-oxo-4,5-dihydro-3H-pyrrolo[2,3-c]quinoline-1-ethyl carboxylate] belongs 0.1 to 1 µM; to `CCOC(=O)c1c[nH]c2c(=O)[nH]c3ccc(-c4ccc5[nH]ccc5c4)cc3c12` [Compound 252, 8-(1H-Indol-5-yl)-4-oxo-4,5-dihydro-3H-pyrrolo[2,3-c]quinoline-1-ethyl carboxylate], 0.1 to 1 µM.

Source of the values: US8426437B2, “Pyrroloquinoline derivatives and their use as protein kinases inhibitors” (Pierre Fabre Medicament, priority 2005, dated 2013).
